Reference: ChEMBL document CHEMBL5223155, “Design, synthesis, and evaluation of pyrido.[3,4-b]pyrazin-2(1H)-one derivatives as potent FLT3 inhibitors” (Bioorg Med Chem, 2023)
Active and inactive are the calls of the source. No cut-off for these calls is given here.

How the values were obtained:
[1] = molecular target: Receptor-type tyrosine-protein kinase FLT3 (Homo sapiens, UniProt P36888, D835Y)
Description: Inhibition of human FLT3 D835Y mutant using TK peptide as substrate incubated for 1 hr in presence of ATP by HTRF assay

[2] = molecular target: T1, Receptor-type tyrosine-protein kinase FLT3 (Homo sapiens, UniProt P36888)
T1 sequence (P36888 whole entry): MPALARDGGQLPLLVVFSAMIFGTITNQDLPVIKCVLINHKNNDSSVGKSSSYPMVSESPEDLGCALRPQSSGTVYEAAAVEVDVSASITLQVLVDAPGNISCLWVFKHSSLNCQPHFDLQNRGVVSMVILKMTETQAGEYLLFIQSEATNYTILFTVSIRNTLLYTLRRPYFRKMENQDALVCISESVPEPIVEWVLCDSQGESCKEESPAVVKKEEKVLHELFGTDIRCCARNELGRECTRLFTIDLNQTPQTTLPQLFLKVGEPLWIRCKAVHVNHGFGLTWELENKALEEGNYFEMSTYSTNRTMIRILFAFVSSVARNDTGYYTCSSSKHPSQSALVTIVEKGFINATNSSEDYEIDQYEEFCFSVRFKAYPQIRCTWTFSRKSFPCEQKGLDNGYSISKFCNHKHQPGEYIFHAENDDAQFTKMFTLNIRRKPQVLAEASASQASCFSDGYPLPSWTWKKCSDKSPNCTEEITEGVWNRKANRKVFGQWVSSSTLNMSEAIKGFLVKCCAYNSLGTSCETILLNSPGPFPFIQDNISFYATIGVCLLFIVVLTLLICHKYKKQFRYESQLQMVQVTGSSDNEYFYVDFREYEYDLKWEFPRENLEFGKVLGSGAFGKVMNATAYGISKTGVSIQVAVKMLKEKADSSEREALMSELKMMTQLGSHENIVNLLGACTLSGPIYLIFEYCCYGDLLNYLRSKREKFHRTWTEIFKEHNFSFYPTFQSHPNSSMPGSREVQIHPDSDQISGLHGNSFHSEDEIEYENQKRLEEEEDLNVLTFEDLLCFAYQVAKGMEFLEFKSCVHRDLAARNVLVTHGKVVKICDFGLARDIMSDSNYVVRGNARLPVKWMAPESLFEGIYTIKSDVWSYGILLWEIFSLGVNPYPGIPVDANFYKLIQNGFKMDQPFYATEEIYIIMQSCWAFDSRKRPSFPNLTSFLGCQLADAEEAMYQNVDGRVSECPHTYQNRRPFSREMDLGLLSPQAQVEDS
Description: Inhibition of human wild type FLT3 using TK peptide as substrate incubated for 1 hr in presence of ATP by HTRF assay

MV4-11 = assay: cells; settings: Homo sapiens, MV4-11, 72 h
Description: Antiproliferative activity against human MV4-11 cells assessed as inhibition of cell growth incubated for 72 hrs by MTS assay

MOLM-13 = assay: Antiproliferative activity against human MOLM-13 cells assessed as inhibition of cell growth incubated for 72 hrs by MTS assay; type: functional, cell-based; settings: MOLM-13, 72 h
BaF3 [3] = assay: cells; settings: Mus musculus, BaF3, 72 h
Description: Antiproliferative activity against mouse BaF3 cells harboring FLT3-ITD/D835Y mutant assessed as inhibition of cell growth incubated for 72 hrs by MTS assay

BaF3 [4] = assay: cells; settings: Mus musculus, BaF3, 72 h; remark: listed apart in the source
Description: Antiproliferative activity against mouse BaF3 cells harboring FLT3-D835F mutant assessed as inhibition of cell growth incubated for 72 hrs by MTS assay

BaF3 [5] = assay: cells; settings: Mus musculus, BaF3, 72 h; remark: listed apart in the source
Description: Antiproliferative activity against mouse BaF3 cells harboring FLT3-D835V mutant assessed as inhibition of cell growth incubated for 72 hrs by MTS assay

BaF3 [6] = assay: cells; settings: Mus musculus, BaF3, 72 h; remark: listed apart in the source
Description: Antiproliferative activity against mouse BaF3 cells harboring FLT3-ITD mutant assessed as inhibition of cell growth incubated for 72 hrs by MTS assay

BaF3 [7] = assay: cells; settings: Mus musculus, BaF3, 72 h; remark: listed apart in the source
Description: Antiproliferative activity against mouse BaF3 cells harboring FLT3-F691L mutant assessed as inhibition of cell growth incubated for 72 hrs by MTS assay

[8] = molecular target: Receptor-type tyrosine-protein kinase FLT3 (Homo sapiens) (UniProt P36888); assay: Inhibition of FLT3 in human MV4-11 cells assessed as reduction in STAT5 phosphorylation by Western blotting analysis; type: cell-based; settings: dose 10-1000 nM
RS4-11 = assay: Antiproliferative activity against human RS4-11 cells assessed as inhibition of cell growth incubated for 72 hrs by MTS assay; type: functional, cell-based; settings: RS4-11, 72 h
Rec1 = assay: Antiproliferative activity against human REC1 cells assessed as inhibition of cell growth incubated for 72 hrs by MTS assay; type: functional, cell-based; settings: Rec1, 72 h
KG-1 = assay: Antiproliferative activity against human KG-1 cells assessed as inhibition of cell growth incubated for 72 hrs by MTS assay; type: functional, cell-based; settings: KG-1, 72 h
[9] = molecular target: Receptor-type tyrosine-protein kinase FLT3 (Homo sapiens) (UniProt P36888); assay: Inhibition of FLT3 in human MV4-11 cells assessed as reduction in ERK phosphorylation at 100 nM by Western blotting analysis; type: cell-based
HCC1954 = assay: Antiproliferative activity against human HCC1954 cells assessed as inhibition of cell growth incubated for 72 hrs by MTS assay; type: functional, cell-based; settings: HCC1954, 72 h
WI-38 = assay: Antiproliferative activity against human WI-38 cells assessed as inhibition of cell growth incubated for 72 hrs by MTS assay; type: functional, cell-based; settings: WI-38, 72 h
[10] = molecular target: Receptor-type tyrosine-protein kinase FLT3 (Homo sapiens) (UniProt P36888); assay: Inhibition of FLT3 in human MV4-11 cells assessed as reduction in AKT phosphorylation by Western blotting analysis; type: cell-based; settings: dose 10-1000 nM
[11] = Antiproliferative activity against human PBMCs assessed as inhibition of cell growth incubated for 72 hrs by MTS assay; type: toxicity, cell-based, PBMC
MOLT-4 = assay: Antiproliferative activity against human MOLT-4 cells assessed as inhibition of cell growth incubated for 72 hrs by MTS assay; type: functional, cell-based; settings: MOLT-4, 72 h
MM1.S = assay: Antiproliferative activity against human MM1.S cells assessed as inhibition of cell growth incubated for 72 hrs by MTS assay; type: functional, cell-based
[12] = Metabolic stability in ICR/CD mouse liver microsomes assessed as compound remaining at 100 uM preincubated with NADPH for 5 mins followed by compound addition and measured upto 90 mins by LC-MS/MS method; type: ADME, Microsome; settings: time < 95 min, read-out: Stability
OCI-AML-3 = assay: Antiproliferative activity against human OCI-AML-3 cells assessed as inhibition of cell growth incubated for 72 hrs by MTS assay; type: functional, cell-based; settings: OCI-AML-3, 72 h
[13] = molecular target: Receptor-type tyrosine-protein kinase FLT3 (Homo sapiens) (UniProt P36888); assay: Inhibition of FLT3 in human MV4-11 cells assessed as reduction in ERK phosphorylation by Western blotting analysis; type: cell-based; settings: dose 10-1000 nM
HL-60 = assay: Antiproliferative activity against human HL-60 cells assessed as inhibition of cell growth incubated for 72 hrs by MTS assay; type: functional, cell-based; settings: HL-60, 72 h
Z-138 = assay: Antiproliferative activity against human Z138 cells assessed as inhibition of cell growth incubated for 72 hrs by MTS assay; type: functional, cell-based; settings: Z-138, 72 h
[14] = molecular target: Receptor-type tyrosine-protein kinase FLT3 (Homo sapiens) (UniProt P36888); assay: Inhibition of FLT3 in human MV4-11 cells assessed as reduction in FLT3 autophosphorylation at Tyr589/591 at 10 to 1000 nM by Western blotting analysis; type: cell-based; settings: dose 10-1000 nM
[15] = molecular target: Receptor-type tyrosine-protein kinase FLT3 (Homo sapiens) (UniProt P36888); assay: Inhibition of FLT3 in human MV4-11 cells assessed as reduction in STAT5 phosphorylation at 100 nM by Western blotting analysis; type: cell-based
JeKo-1 = assay: Antiproliferative activity against human JeKo-1 cells assessed as inhibition of cell growth incubated for 72 hrs by MTS assay; type: functional, cell-based; settings: JeKo-1, 72 h
[16] = Antiproliferative activity against human MINO cells assessed as inhibition of cell growth incubated for 72 hrs by MTS assay; type: functional, cell-based

CN1CCN(c2ccc(Nc3cc4c(cn3)ncc(=O)n4-c3ccc(N)cc3)cc2)CC1
IC50 [1]: 2840 nM
IC50 [2]: 2170 nM

CN1CCN(c2ccc(Nc3cc4c(cn3)ncc(=O)n4-c3cccc(N)c3)nc2)CC1
IC50 [1]: 730 nM
IC50 [2]: 915 nM

Cc1cc(Nc2cc3c(cn2)ncc(=O)n3-c2ccc(N)cc2)ncc1N1CCC(O)CC1
IC50 [1]: 156 nM
IC50 [2]: 193 nM

CC(=O)Nc1ccc(-n2c(=O)cnc3cnc(Nc4ccc(N5CCN(C)CC5)cn4)cc32)cc1
IC50 [1]: 582 nM
IC50 [2]: 939 nM

CCN1CCN(c2cnc(Nc3cc4c(cn3)ncc(=O)n4-c3ccc(N)cc3)cc2C)CC1
IC50 [1]: 51 nM
IC50 (MV4-11): 31 nM
IC50 [2]: 102 nM
IC50 (MOLM-13): 230 nM

Cc1cc(Nc2cc3c(cn2)ncc(=O)n3-c2ccc(N)cc2)ncc1N1CCN(C2CC2)CC1
IC50 [1]: 38 nM
IC50 (MV4-11): 36 nM
IC50 [2]: 103 nM
IC50 (MOLM-13): 366 nM

CN1CCN(c2ccc(Nc3ccc4ncc(=O)n(-c5ccc(N)cc5)c4n3)nc2)CC1
IC50 [1]: 6590 nM
IC50 [2]: 2540 nM

CN1CCN(c2ccc(Nc3ccc4ncc(=O)n(-c5ccc(N)cc5)c4n3)cc2)CC1
IC50 [1]: 6610 nM
IC50 [2]: 3830 nM

CC(=O)Nc1ccc(-n2c(=O)cnc3cnc(Nc4ccc(N5CCN(C)CC5)cc4)cc32)cc1
IC50 [1]: 2440 nM
IC50 [2]: 2720 nM

Cc1cc(Nc2cc3c(cn2)ncc(=O)n3-c2ccc(N)cc2)ncc1N1CCC(N)CC1
IC50 [1]: 42 nM
IC50 (MV4-11): 52 nM
IC50 [2]: 72 nM
IC50 (MOLM-13): 651 nM

CN1CCN(c2ccc(Nc3cc4c(cn3)ncc(=O)n4-c3ccc(CN)cc3)nc2)CC1
IC50 [1]: 811 nM
IC50 [2]: 1040 nM

Cc1cc(Nc2cc3c(cn2)ncc(=O)n3-c2ccc(N)cc2)ncc1NC1CCN(C)CC1
IC50 [1]: 343 nM
IC50 [2]: 440 nM

Cc1cc(Nc2cc3c(cn2)ncc(=O)n3-c2ccc(N)cc2)ncc1N1C[C@@H](C)N[C@@H](C)C1
IC50 [1]: 33 nM
IC50 (BaF3 [3]): 169 nM
IC50 (BaF3 [4]): 689 nM
IC50 (MV4-11): 24 nM
IC50 [2]: 85 nM
IC50 (BaF3 [5]): 70 nM
IC50 (BaF3 [6]): 681 nM
IC50 (BaF3 [7]): 257 nM
IC50 (MOLM-13): 191 nM

Cc1cc(Nc2cc3c(cn2)ncc(=O)n3-c2ccc(N)cc2)ncc1N1CCN(C(C)C)CC1
inhibition [8]: Dose-Dependent Effect
IC50 (RS4-11): 1400 nM
IC50 (Rec1): 3920 nM
IC50 (KG-1): 2460 nM
inhibition [9]: 100%
IC50 (HCC1954): 11600 nM
IC50 (WI-38): 16600 nM
inhibition [10]: Dose-Dependent Effect
IC50 [1]: 30 nM
IC50 (BaF3 [3]): 26 nM
IC50 at 72 h [11]: 3270 nM
IC50 (BaF3 [4]): 131 nM
IC50 (MV4-11): 15 nM
IC50 (MOLT-4): 4330 nM
IC50 [2]: 62 nM
IC50 (MM1.S): 1580 nM
remaining at 1.5 h, 100 µM [12]: > 80%
IC50 (BaF3 [5]): 8 nM
IC50 (BaF3 [6]): 136 nM
IC50 (BaF3 [7]): 40 nM
IC50 (OCI-AML-3): 6440 nM
inhibition [13]: Dose-Dependent Effect
IC50 (HL-60): 6500 nM
IC50 (Z-138): 1440 nM
inhibition [14]: Active
inhibition [15]: 100%
IC50 (MOLM-13): 132 nM
IC50 (JeKo-1): 1520 nM
IC50 [16]: 1090 nM

CN1CCN(c2ccc(Nc3cc4c(cn3)ncc(=O)n4-c3ccc(N)cc3)nc2)CC1
IC50 [1]: 653 nM
IC50 [2]: 599 nM

Cc1cc(Nc2cc3c(cn2)ncc(=O)n3-c2ccc(N)cc2)ncc1N1CCN(C)CC1
IC50 [1]: 41 nM
IC50 (MV4-11): 30 nM
IC50 [2]: 50 nM
IC50 (MOLM-13): 254 nM

Cc1cc(Nc2cc3c(cn2)ncc(=O)n3-c2ccc(N)cc2)ncc1N1CCN(S(C)(=O)=O)CC1
IC50 [1]: 89 nM
IC50 (MV4-11): 68 nM
IC50 [2]: 122 nM
IC50 (MOLM-13): 692 nM

Cc1cc(Nc2cc3c(cn2)ncc(=O)n3-c2ccc(N)cc2)ncc1N1CCC(F)(F)CC1
IC50 [1]: 120 nM
IC50 [2]: 288 nM

Cc1cc(Nc2cc3c(cn2)ncc(=O)n3-c2ccc(N)cc2)ncc1N1CCNCC1
IC50 [1]: 34 nM
IC50 (BaF3 [3]): 633 nM
IC50 (BaF3 [4]): 3100 nM
IC50 (MV4-11): 26 nM
IC50 [2]: 102 nM
IC50 (BaF3 [5]): 163 nM
IC50 (BaF3 [6]): 3130 nM
IC50 (BaF3 [7]): 863 nM
IC50 (MOLM-13): 436 nM

CC(=O)N1CCN(c2cnc(Nc3cc4c(cn3)ncc(=O)n4-c3ccc(N)cc3)cc2C)CC1
IC50 [1]: 123 nM
IC50 [2]: 166 nM

CN1CCN(c2ccc(Nc3cc4c(cn3)ncc(=O)n4-c3ccc(NS(C)(=O)=O)cc3)nc2)CC1
IC50 [1]: 685 nM
IC50 [2]: 856 nM

Cc1cc(Nc2cc3c(cn2)ncc(=O)n3-c2ccc(N)cc2)ncc1N1CCSCC1
IC50 [1]: 89 nM
IC50 (MV4-11): 98 nM
IC50 [2]: 185 nM
IC50 (MOLM-13): 881 nM

CN1CCN(c2ccc(Nc3cc4c(cn3)ncc(=O)n4-c3ccc(N(C)C)cc3)nc2)CC1
IC50 [1]: 633 nM
IC50 [2]: 747 nM

Cc1cc(Nc2cc3c(cn2)ncc(=O)n3-c2ccc(N)cc2)ncc1N1CCOCC1
IC50 [1]: 11700 nM
IC50 [2]: > 10 nM
